Like-named read-outs stand apart in the source and are kept apart here. Where no end group is shown, it is not given here.

In one test the target is HLA-A*0202 (Homo sapiens, UniProt P04439, D140Y/D185E/D98H/E176V/E277Q/G131W/G231S/I119L/I121R/I166T/I218V/L180W/L300P/L318F/N151K/N90K/P208A/P217A/Q67R/Q86G/Q94H/R138H/R169H/T345S). As to the kind of experiment: HLA class I binding assay, purified HLA-A*0202. The note with it: Table XXII, binding affinity.
The next test has as its target HLA-A*0203 (Homo sapiens, UniProt P04439, A173T/D140Y/D185E/D98H/E277Q/G131W/G231S/I119V/I121R/I166T/I218V/L180W/L300P/L318F/N151K/N90K/P208A/P217A/Q86G/Q94H/R138H/R169H/T345S). Kind of test: HLA class I binding assay, purified HLA-A*0203. To be noted: Table XXII, binding affinity.
The target in the next test is HLA-A*6802 (Homo sapiens, UniProt P04439, A269V/D140Y/D185E/E176V/E277Q/E87N/F33Y/G231S/I121R/I166T/I218V/L180W/L300P/L318F/N151K/P208A/P217A/Q86R/R138H/R169H/S129P/T345S/V36M). Kind of test: HLA class I binding assay, purified HLA-A*6802. The note with it: Table XXII, binding affinity.
A further test has as its target HLA-DRB1*0401 (Homo sapiens, UniProt P01903+P01911, A100K/A169T/F76Y/I96L/K127E/L162R/M171V/N62H/P40V/Q125Y/R42H/S133A/S149N/S66Y/V115G/V209L/W38E). Kind of test: HLA class II binding assay, DRB1*0401 (DR4w4).
Another test has as its target HLA-A*3101 (Homo sapiens, UniProt P04439, A270S/D185E/E176V/E277Q/F33T/G231S/G80R/H175R/I121M/I218V/I322F/K168Q/L300P/L318F/M331R/P217A/Q94H/R138Q/T323A/T345S/T97I/V358M). As to the kind of experiment: HLA class I binding assay, purified HLA-A*3101. To be noted: Table XXIII, binding affinity.
Another test concerns the target HLA-A*3301 (Homo sapiens, UniProt P04439, A270S/D185E/E176V/E277Q/E87N/F33T/G231S/H175R/I121M/I218V/I322F/K168Q/K210R/L300P/L318F/M331R/P217A/Q86R/Q94H/R138Q/T323A/T345S/T97I/V358M/Y195H). As to the kind of experiment: HLA class I binding assay, purified HLA-A*3301. The note with it: Table XXIII, binding affinity.
Another test addresses HLA-A*6801 (Homo sapiens, UniProt P04439, A269V/D185E/E176V/E277Q/E87N/F33Y/G231S/I121M/I166T/I218V/L180W/L300P/L318F/N151K/P208A/P217A/Q86R/R169H/T345S). As to the kind of experiment: HLA class I binding assay, purified HLA-A*6801. To be noted: Table XXIII, binding affinity.
A further test deals with HLA-A*1101 (Homo sapiens, UniProt P04439, A114D/D185E/E176A/F33Y/L180Q/S129P/T187R). As to the kind of experiment: HLA class I binding assay, purified HLA-A*1101. The note with it: Table XXIII, binding affinity.
A further test has as its target HLA-A*0206 (Homo sapiens, UniProt P04439, D140Y/D185E/D98H/E176V/E277Q/F33Y/G131W/G231S/I119V/I121R/I166T/I218V/L300P/L318F/N151K/N90K/P208A/P217A/Q86G/Q94H/R138H/R169H/T345S). As to the kind of experiment: HLA class I binding assay, purified HLA-A*0206. The note with it: Table XXII, binding affinity.
The next test concerns the target HLA-A*0201 (Homo sapiens, UniProt P04439, D140Y/D185E/D98H/E176V/E277Q/G131W/G231S/I119V/I121R/I166T/I218V/L300P/L318F/N151K/N90K/P208A/P217A/Q86G/Q94H/R138H/R169H/T345S). As to the kind of experiment: HLA class I binding assay, purified HLA-A*0201. The note with it: Table XXII, binding affinity.
Where [1] appears, read: HLA Class II motif and supermotif-bearing epitopes.

Regarding `CC[C@H](C)[C@H](NC(=O)[C@H](CC(C)C)NC(=O)[C@@H](N)CCC(N)=O)C(=O)NCC(=O)N[C@@H](Cc1ccc(O)cc1)C(=O)N[C@H](C(=O)N[C@H](C(=O)NCC(=O)N[C@H](C(=O)O)C(C)C)[C@@H](C)CC)C(C)C` [CEA.78L2V9], the IC50 came to 5.9 nM on HLA-A*0202, 2.3 nM on HLA-A*0203 and 2.3 nM at HLA-A*6802.

In the case of `CC[C@H](C)[C@H](NC(=O)[C@H](CC(N)=O)NC(=O)[C@@H](N)CCC(N)=O)C(=O)N[C@H](C(=O)N[C@@H](CCC(N)=O)C(=O)N[C@@H](CC(N)=O)C(=O)N[C@@H](CC(=O)O)C(=O)N[C@H](C(=O)NCC(=O)N[C@@H](Cc1ccccc1)C(=O)N[C@@H](Cc1ccc(O)cc1)C(=O)N[C@H](C(=O)N[C@@H](CC(C)C)C(=O)N[C@@H](Cc1c[nH]cn1)C(=O)N[C@H](C(=O)O)C(C)C)[C@@H](C)O)[C@@H](C)O)[C@@H](C)CC` [CEA.110], the IC50 on HLA-DRB1*0401 (setting [1]) was above 8180 nM.

Turning to `CC(C)C[C@H](NC(=O)[C@H](CCCNC(=N)N)NC(=O)[C@@H]1CCCN1C(=O)[C@H](CO)NC(=O)[C@@H](NC(=O)[C@@H]1CCCN1C(=O)[C@H](CC(C)C)NC(=O)[C@H](CO)NC(=O)[C@H](CCC(N)=O)NC(=O)[C@H](CC(N)=O)NC(=O)[C@H](CC(N)=O)NC(=O)[C@@H](NC(=O)[C@H](Cc1c[nH]c2ccccc12)NC(=O)[C@H](Cc1c[nH]c2ccccc12)NC(=O)[C@@H](N)CC(C)C)C(C)C)C(C)C)C(=O)O` [CEA.177], on HLA-DRB1*0401 (DR supertype primary binding, read-out: DR4w4 binding affinity), the IC50 came to 1550 nM.

Consider `CC(C)C[C@H](NC(=O)[C@H](CC(C)C)NC(=O)[C@@H](NC(=O)[C@H](CC(C)C)NC(=O)[C@@H](NC(=O)[C@H](CCCNC(=N)N)NC(=O)[C@H](CC(N)=O)NC(=O)[C@H](CC(=O)O)NC(=O)[C@H](CC(N)=O)NC(=O)[C@H](CO)NC(=O)[C@H](CC(C)C)NC(=O)[C@H](CCC(N)=O)NC(=O)[C@H](CC(C)C)NC(=O)[C@@H](N)CCCNC(=N)N)[C@@H](C)O)[C@@H](C)O)C(=O)N[C@@H](CO)C(=O)O` [CEA.368], for which the IC50 on HLA-DRB1*0401 (setting [1]) was above 8180 nM.

Regarding `CC(C)C[C@H](NC(=O)[C@H](CC(C)C)NC(=O)[C@@H](NC(=O)[C@H](CC(C)C)NC(=O)[C@@H](NC(=O)[C@@H](N)CCCNC(=N)N)C(C)C)[C@@H](C)O)C(=O)N[C@@H](CO)C(=O)N[C@H](C(=O)N[C@H](C(=O)N[C@@H](CCCCN)C(=O)O)[C@@H](C)O)C(C)C` [CEA.376.V2K10], the values for the IC50 on HLA-A*3101, on HLA-A*3301 and at HLA-A*6801 were 164 nM, above 10000 nM and 5710 nM, respectively.

For the compound `CC(C)[C@H](NC(=O)[C@@H](N)[C@@H](C)O)C(=O)N[C@@H](CO)C(=O)N1CCC[C@H]1C(=O)N[C@@H](CO)C(=O)N[C@@H](Cc1ccc(O)cc1)C(=O)N[C@H](C(=O)N[C@@H](Cc1ccc(O)cc1)C(=O)N[C@@H](Cc1ccc(O)cc1)C(=O)N[C@@H](CCCCN)C(=O)O)[C@@H](C)O` [CEA.419.V2K10], the IC50 on HLA-A*1101 was 43 nM; at HLA-A*3101, 3670 nM; at HLA-A*3301, above 10000 nM; on HLA-A*6801, 6.7 nM.

On to `CC[C@H](C)[C@H](N)C(=O)N[C@H](C(=O)N1CCC[C@H]1C(=O)N[C@@H](CO)C(=O)N[C@@H](Cc1ccc(O)cc1)C(=O)N[C@H](C(=O)N[C@@H](Cc1ccc(O)cc1)C(=O)N[C@@H](Cc1ccc(O)cc1)C(=O)N[C@@H](CCCCN)C(=O)O)[C@@H](C)O)C(C)C` [CEA.420.V2K9], for which the IC50 was determined as 720 nM at HLA-A*3101, 4330 nM on HLA-A*3301 and 22 nM at HLA-A*6801.

As for `CC(C)C[C@H](NC(=O)[C@@H](NC(=O)[C@@H](N)CCCNC(=N)N)C(C)C)C(=O)N[C@H](C(=O)N[C@@H](CC(C)C)C(=O)N[C@@H](Cc1ccccc1)C(=O)N[C@@H](CC(N)=O)C(=O)N[C@H](C(=O)N[C@H](C(=O)N[C@@H](CCCCN)C(=O)O)[C@@H](C)O)C(C)C)[C@@H](C)O` [CEA.554.V42K10], the IC50 is 32 nM at HLA-A*1101, 234 nM at HLA-A*3101, above 10000 nM at HLA-A*3301 and 2350 nM at HLA-A*6801.

Take `CC[C@H](C)[C@H](NC(=O)CNC(=O)[C@H](CS)NC(=O)[C@H](CC(C)C)NC(=O)[C@@H](N)Cc1ccc(O)cc1)C(=O)N[C@@H](CCC(N)=O)C(=O)N[C@@H](CC(N)=O)C(=O)N[C@@H](CO)C(=O)N[C@H](C(=O)O)C(C)C` [CEA.569L2]: the IC50 came out at 24 nM on HLA-A*0202, 31 nM on HLA-A*0206 and 3480 nM on HLA-A*6802.

As for `CC(C)C[C@H](NC(=O)[C@H](CC(N)=O)NC(=O)[C@H](CO)NC(=O)[C@@H](NC(=O)[C@@H](N)Cc1ccccc1)C(C)C)C(=O)N[C@@H](C)C(=O)N[C@H](C(=O)NCC(=O)N[C@@H](CCCCN)C(=O)O)[C@@H](C)O` [CEA.656.K9], the IC50 on HLA-A*1101 is 207 nM; at HLA-A*3101, above 10000 nM; at HLA-A*3301 it was above 10000 nM; on HLA-A*6801 it was 5.3 nM.

With `CC[C@H](C)[C@H](NC(=O)CNC(=O)[C@@H](NC(=O)[C@H](CC(C)C)NC(=O)[C@H](C)N)C(C)C)C(=O)N[C@@H](CCSC)C(=O)N[C@H](C(=O)NCC(=O)N[C@H](C(=O)O)C(C)C)[C@@H](C)CC` [CEA.687L2], the IC50 at HLA-A*0201 stood at 10 nM; on HLA-A*0202, 63 nM; on HLA-A*0203, 31 nM; on HLA-A*0206, 100 nM; on HLA-A*6802, 102 nM.

Consider `CC[C@H](C)[C@H](NC(=O)CN)C(=O)N[C@@H](CCSC)C(=O)N[C@H](C(=O)NCC(=O)N[C@H](C(=O)N[C@@H](CC(C)C)C(=O)N[C@H](C(=O)NCC(=O)N[C@H](C(=O)O)C(C)C)C(C)C)C(C)C)[C@@H](C)CC` [CEA.690], for which the IC50 at HLA-A*0201 came to 64 nM; on HLA-A*0202, 205 nM; on HLA-A*0203 it was 31 nM; on HLA-A*0206 it was 142 nM; on HLA-A*6802, 500 nM.

Regarding `CC[C@H](C)[C@H](N)C(=O)N[C@@H](CC(C)C)C(=O)N[C@H](C(=O)NCC(=O)N[C@H](C(=O)N[C@@H](CC(C)C)C(=O)N[C@H](C(=O)NCC(=O)N[C@H](C(=O)O)C(C)C)C(C)C)C(C)C)[C@@H](C)CC` [CEA.691L2], the IC50 on HLA-A*0201 was 22 nM; on HLA-A*0202, 8 nM; at HLA-A*0203, 3.2 nM; at HLA-A*6802 it was 160 nM.

Take TVSPLNTSYK [CEA.241.V2K10]: the IC50 was 6 nM at HLA-A*1101, above 10000 nM on HLA-A*3101, above 10000 nM at HLA-A*3301 and 7.3 nM at HLA-A*6801.
